ChEMBL document CHEMBL5465560, “Selectivity Literature for EUbOPEN Chemogenomic Library” (2024)

Legend:
[1] = target: T1, Tyrosine-protein kinase receptor TYRO3 (Homo sapiens) (UniProt Q06418); details: at 10 µM
T1 sequence (whole entry): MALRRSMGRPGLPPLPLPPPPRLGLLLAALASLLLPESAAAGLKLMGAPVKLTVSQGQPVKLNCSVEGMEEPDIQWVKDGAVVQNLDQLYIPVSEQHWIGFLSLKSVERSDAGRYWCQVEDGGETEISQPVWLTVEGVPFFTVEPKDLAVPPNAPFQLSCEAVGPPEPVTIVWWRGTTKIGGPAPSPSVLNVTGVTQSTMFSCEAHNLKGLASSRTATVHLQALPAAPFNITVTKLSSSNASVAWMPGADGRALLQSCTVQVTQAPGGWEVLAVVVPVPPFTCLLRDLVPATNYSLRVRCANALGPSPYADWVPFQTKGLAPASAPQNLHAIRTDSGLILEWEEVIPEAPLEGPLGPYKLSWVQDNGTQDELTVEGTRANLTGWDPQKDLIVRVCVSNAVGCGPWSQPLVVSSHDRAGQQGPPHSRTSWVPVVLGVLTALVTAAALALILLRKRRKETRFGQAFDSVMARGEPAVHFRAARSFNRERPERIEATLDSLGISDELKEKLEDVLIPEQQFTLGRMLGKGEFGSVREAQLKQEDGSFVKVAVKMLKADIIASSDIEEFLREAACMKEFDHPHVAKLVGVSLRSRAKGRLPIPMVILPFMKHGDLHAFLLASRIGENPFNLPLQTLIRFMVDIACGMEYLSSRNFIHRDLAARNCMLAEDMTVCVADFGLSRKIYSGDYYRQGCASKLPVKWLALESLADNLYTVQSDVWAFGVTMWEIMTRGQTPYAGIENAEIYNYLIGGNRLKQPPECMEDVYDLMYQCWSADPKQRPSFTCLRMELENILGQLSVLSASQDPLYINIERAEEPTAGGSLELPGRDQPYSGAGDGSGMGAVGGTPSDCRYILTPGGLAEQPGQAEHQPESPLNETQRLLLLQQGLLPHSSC

[2] = target: Phosphatidylinositol 4,5-bisphosphate 3-kinase catalytic subunit gamma isoform (Homo sapiens) (UniProt P48736); test: Selectivity interaction (KinomeScan (DiscoverX)) EUB0001079a PIK3CG; details: at 1 µM
[3] = target: Cyclin-dependent kinase 7 (Homo sapiens, UniProt P50613); test: Selectivity interaction (KinomeScan (DiscoverX)) EUB0001079a CDK7; details: at 1 µM
[4] = target: T2, cAMP-dependent protein kinase catalytic subunit PRKX (Homo sapiens) (UniProt P51817); test: Selectivity interaction (KinomeScan (DiscoverX)) EUB0000666a PRKX; details: at 10 µM
T2 sequence (whole entry): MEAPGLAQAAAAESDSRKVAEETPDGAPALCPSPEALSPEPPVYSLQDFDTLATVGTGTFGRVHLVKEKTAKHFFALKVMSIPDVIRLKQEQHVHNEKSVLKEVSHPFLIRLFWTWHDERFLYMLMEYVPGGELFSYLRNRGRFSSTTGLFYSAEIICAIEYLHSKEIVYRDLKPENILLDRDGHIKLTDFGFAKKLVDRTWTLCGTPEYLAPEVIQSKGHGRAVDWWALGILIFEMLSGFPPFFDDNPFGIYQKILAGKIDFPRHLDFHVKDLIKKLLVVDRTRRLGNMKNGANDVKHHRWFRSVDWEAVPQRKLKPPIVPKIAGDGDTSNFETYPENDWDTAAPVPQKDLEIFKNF

[5] = target: Serine/threonine-protein kinase WNK2 (Homo sapiens) (UniProt Q9Y3S1); test: Selectivity interaction (LanthaScreen Eu Kinase Binding Assay) EUB0001632a WNK2; details: at 10 µM
[6] = test system: Receptor-type tyrosine-protein kinase FLT3 (Homo sapiens), P36888 [UNDEFINED MUTATION]; test: Selectivity interaction (KinomeScan (DiscoverX)) EUB0000311b FLT3; details: at 1 µM
[7] = target: G protein-coupled receptor kinase 4 (Homo sapiens) (UniProt P32298); test: Selectivity interaction (SelectScreen profiling (Invitrogen)) EUB0000607a GRK4; details: at 2 µM
[8] = target: Serine/threonine-protein kinase WNK1 (Homo sapiens) (UniProt Q9H4A3); test: Selectivity interaction (KinomeScan (DiscoverX)) EUB0001049a WNK1; details: at 1 µM
[9] = target: Mitogen-activated protein kinase 9 (Homo sapiens, UniProt P45984); test: Selectivity interaction (Enzymatic assay) EUB0001199aCl MAPK9
[10] = target: Histone-lysine N-methyltransferase SUV39H2 (Homo sapiens) (UniProt Q9H5I1); details: at 10 µM
[11] = target: Putative phosphatidylinositol 4-kinase alpha-like protein P2 (Homo sapiens) (UniProt A4QPH2); test: Selectivity interaction (ActivX KiNativ screen (ex vivo kinase selectivity in human PBMCs)) EUB0001619a PI4KAP2; assay type: cell-based; details: PBMC, at 1 µM
[12] = target: T3, Serine/threonine-protein kinase RIO3 (Homo sapiens) (UniProt O14730); test: Selectivity interaction (KinomeScan (DiscoverX)) EUB0001619a RIOK3; details: at 1 µM
T3 sequence (whole entry): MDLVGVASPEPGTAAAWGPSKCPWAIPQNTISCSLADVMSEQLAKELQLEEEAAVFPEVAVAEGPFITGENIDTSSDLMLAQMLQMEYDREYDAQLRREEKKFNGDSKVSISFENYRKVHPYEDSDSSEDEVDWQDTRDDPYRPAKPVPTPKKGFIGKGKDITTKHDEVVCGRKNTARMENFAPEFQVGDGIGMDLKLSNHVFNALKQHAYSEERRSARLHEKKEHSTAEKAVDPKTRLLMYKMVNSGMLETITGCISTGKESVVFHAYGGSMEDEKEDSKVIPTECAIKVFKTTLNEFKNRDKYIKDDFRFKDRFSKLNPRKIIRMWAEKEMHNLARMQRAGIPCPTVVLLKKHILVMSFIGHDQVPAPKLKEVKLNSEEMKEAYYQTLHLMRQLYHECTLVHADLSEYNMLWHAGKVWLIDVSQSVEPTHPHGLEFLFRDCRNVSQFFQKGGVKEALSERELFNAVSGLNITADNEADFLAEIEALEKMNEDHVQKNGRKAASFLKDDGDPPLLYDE

Serine/threonine-protein kinase WNK2 (Homo sapiens), sequence (Q9Y3S1 whole entry): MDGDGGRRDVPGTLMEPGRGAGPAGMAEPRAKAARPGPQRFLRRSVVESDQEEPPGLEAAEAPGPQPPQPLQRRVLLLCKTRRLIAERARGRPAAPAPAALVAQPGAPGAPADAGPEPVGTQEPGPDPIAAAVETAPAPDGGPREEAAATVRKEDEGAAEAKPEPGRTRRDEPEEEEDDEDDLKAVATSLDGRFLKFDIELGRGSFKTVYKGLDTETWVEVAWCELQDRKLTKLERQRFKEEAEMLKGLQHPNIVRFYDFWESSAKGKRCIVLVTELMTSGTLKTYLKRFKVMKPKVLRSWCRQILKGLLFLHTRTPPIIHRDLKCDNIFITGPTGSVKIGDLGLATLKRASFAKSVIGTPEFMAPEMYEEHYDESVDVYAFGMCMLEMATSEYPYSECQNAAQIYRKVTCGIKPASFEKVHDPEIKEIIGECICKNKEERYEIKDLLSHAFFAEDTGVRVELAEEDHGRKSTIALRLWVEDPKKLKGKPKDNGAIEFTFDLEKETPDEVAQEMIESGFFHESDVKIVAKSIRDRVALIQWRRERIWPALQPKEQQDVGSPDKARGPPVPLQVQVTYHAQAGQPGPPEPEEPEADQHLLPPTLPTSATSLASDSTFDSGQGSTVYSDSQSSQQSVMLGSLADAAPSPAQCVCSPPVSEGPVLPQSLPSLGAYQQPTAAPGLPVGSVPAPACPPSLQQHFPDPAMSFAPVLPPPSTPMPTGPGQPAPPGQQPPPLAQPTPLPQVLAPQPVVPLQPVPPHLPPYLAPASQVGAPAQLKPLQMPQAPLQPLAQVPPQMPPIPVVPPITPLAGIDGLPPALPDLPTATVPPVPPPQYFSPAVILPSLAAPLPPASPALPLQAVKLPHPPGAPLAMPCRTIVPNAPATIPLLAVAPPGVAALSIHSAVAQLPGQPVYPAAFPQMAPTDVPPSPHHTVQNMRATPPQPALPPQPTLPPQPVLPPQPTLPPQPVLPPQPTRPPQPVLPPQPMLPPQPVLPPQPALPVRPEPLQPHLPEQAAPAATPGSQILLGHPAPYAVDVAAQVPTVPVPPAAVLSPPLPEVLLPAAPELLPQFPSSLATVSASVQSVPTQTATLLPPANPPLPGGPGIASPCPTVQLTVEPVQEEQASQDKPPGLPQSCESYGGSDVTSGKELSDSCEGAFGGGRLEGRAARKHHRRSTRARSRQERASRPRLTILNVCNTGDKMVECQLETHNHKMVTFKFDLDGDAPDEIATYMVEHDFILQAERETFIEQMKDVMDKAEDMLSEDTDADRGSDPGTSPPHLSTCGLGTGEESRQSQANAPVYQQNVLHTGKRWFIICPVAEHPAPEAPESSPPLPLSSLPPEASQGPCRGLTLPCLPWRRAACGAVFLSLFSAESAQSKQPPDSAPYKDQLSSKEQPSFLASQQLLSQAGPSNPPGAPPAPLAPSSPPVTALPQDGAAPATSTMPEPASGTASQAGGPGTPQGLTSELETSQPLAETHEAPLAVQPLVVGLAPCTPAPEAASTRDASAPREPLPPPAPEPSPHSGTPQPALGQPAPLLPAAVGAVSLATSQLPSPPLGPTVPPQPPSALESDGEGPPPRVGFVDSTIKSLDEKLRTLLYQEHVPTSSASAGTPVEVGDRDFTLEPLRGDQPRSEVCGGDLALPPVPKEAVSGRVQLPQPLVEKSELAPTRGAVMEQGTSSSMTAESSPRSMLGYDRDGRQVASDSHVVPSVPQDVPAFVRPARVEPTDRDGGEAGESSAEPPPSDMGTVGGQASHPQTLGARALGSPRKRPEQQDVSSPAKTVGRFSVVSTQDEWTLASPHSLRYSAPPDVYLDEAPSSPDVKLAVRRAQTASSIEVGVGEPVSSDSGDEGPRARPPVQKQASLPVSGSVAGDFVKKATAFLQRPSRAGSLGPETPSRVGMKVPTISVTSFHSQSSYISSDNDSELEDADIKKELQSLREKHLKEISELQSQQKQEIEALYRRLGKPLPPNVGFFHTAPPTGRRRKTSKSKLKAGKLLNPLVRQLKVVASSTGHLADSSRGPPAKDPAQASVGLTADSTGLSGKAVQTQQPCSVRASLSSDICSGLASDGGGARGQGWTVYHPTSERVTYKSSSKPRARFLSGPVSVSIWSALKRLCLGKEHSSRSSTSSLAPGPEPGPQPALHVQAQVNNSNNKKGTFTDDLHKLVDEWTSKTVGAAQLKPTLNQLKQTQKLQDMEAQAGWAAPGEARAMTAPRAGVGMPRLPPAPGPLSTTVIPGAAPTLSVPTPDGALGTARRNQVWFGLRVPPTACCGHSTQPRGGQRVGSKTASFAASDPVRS
Phosphatidylinositol 4,5-bisphosphate 3-kinase catalytic subunit gamma isoform (Homo sapiens), sequence (P48736 whole entry, looked up, canonical isoform): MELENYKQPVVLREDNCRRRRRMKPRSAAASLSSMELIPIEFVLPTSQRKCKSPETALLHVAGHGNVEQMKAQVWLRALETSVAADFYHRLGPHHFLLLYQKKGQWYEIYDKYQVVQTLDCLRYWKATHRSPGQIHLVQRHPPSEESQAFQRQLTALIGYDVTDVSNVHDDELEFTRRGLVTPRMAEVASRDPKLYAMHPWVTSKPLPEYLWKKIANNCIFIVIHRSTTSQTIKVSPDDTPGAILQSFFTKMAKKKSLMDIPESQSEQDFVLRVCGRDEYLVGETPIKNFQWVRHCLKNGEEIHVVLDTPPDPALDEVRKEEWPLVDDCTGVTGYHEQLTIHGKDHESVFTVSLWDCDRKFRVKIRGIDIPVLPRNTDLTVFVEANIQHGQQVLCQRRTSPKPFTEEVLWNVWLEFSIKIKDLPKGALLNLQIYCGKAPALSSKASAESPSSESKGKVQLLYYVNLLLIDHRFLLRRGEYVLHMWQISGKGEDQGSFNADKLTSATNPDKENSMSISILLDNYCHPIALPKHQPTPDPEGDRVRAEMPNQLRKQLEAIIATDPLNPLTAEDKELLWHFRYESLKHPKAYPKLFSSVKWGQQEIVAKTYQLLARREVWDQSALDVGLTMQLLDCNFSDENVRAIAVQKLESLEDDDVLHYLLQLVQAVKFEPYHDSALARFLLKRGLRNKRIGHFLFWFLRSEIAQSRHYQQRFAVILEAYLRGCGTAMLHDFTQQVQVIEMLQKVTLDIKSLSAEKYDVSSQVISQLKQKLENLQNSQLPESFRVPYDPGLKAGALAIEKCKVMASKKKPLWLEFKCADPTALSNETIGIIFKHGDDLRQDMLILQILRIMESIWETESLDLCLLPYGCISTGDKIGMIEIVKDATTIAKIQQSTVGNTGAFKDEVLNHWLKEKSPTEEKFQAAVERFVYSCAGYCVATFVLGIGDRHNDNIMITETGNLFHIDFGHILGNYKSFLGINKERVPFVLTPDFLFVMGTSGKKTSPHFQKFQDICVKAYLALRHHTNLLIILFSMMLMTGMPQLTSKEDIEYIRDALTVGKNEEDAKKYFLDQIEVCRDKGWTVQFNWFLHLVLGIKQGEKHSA
Cyclin-dependent kinase 7, sequence (P50613 whole entry): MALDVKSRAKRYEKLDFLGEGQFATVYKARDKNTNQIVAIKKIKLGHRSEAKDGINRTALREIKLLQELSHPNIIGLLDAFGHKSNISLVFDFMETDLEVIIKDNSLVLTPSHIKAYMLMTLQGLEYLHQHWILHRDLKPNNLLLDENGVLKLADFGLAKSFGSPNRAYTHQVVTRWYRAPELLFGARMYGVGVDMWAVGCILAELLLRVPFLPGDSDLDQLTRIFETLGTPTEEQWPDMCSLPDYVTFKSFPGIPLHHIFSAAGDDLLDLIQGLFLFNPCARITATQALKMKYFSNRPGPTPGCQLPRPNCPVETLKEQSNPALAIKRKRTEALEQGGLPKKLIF
G protein-coupled receptor kinase 4 (Homo sapiens), sequence (P32298 whole entry, looked up): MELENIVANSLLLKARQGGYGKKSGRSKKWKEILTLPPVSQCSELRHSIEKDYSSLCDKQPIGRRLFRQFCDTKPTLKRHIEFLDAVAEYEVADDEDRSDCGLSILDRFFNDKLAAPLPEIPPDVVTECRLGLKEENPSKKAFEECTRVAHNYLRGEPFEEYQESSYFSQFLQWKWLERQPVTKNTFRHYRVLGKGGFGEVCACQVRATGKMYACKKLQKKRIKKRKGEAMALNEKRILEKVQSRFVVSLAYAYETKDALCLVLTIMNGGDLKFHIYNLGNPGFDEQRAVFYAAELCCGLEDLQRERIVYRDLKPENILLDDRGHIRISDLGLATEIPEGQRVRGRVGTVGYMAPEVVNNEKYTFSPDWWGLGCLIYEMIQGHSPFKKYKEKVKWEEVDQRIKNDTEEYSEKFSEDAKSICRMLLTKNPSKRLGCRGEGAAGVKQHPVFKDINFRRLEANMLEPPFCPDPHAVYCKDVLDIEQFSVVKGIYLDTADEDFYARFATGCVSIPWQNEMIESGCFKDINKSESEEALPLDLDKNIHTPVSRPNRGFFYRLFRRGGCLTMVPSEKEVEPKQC
Histone-lysine N-methyltransferase SUV39H2 (Homo sapiens), sequence (Q9H5I1 whole entry): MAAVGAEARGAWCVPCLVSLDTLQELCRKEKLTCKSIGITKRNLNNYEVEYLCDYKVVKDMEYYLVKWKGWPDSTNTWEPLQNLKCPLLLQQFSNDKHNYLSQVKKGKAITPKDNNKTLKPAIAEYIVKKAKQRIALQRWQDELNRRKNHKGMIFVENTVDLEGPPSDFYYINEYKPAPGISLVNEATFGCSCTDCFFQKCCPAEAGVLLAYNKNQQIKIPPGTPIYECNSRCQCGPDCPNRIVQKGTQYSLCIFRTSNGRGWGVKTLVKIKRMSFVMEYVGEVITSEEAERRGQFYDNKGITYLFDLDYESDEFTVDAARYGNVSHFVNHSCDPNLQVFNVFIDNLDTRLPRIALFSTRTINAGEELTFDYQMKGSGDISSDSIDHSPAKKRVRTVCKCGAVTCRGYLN

CCN(CC)CCCCNc1ncc2cc(-c3cc(OC)cc(OC)c3)c(NC(=O)NC(C)(C)C)nc2n1
% of control [1]: 100%

Nc1cnc(N2CCc3cc(S(=O)(=O)Nc4c(F)cc(Cl)cc4F)cc(N4CCCC4=O)c32)nc1 [TP-020n]
% of control [2]: 81%
% of control [3]: 100%

O=C(NOC[C@H](O)CO)c1ccc(F)c(F)c1Nc1ccc(I)cc1F
% of control [4]: 100%

Cn1cc(-n2cnc3c(NCc4nc5cc(Cl)c(Cl)cc5[nH]4)nc(N4CCOCC4)nc32)cn1
% of inhibition [5]: -13.6%

CCc1ccccc1C(=O)Nc1n[nH]c2c(C)c(F)c(C3C(C#N)=C(C)N(C)C(C)=C3C#N)cc12 [BAY-3827]
% of control [6]: 12%

CNC(=O)Nc1ccc(-c2nc(N3CC4CCC(C3)O4)c3cnn(C4CCC5(CC4)OCCO5)c3n2)cc1
% of inhibition [7]: -4%

COc1cc(Nc2nc(C)cc(-c3cnn4nc(OC)ccc34)n2)cc(C(F)(F)F)c1
% of control [8]: 66%

CN1Cc2nccc(-c3cn(C)nc3-c3ccc(F)cc3)c2C1=O
IC50 [9]: 4.95 µM

CNCCN1CCC(c2cc(CN(C)C(=O)c3cccc(Oc4ccccc4)c3)ccn2)CC1
% activity [10]: > 90%

N#Cc1cccc(-c2c[nH]c3ncnc(N4CCOCC4)c23)c1
% of inhibition [11]: 6%
% of control [12]: 4.8%
